Experimental findings from EP0280051A1, “ACV synthetase” (QUEEN'S UNIVERSITY AT KINGSTON, priority 1987, dated 1988) are described below.

In this assay the target is ACV-synthetase of C. acremonium C-10 (Hapsidospora chrysogena, UniProt P25464). In words: Cell-free ACV synthetase reaction (desalted extract, HPLC analysis after monobromobimane derivatization). It is filed as biochemical. The following applies: for inhibition of ACV-synthetase: qualitative, concentration not clearly stated for the inhibitors. The method, then:
a Typical reaction mixtures contained desalted extract (about 0.5 mg protein), 20 µg cycloheximide, 10 mM ATP, 10 mM MgC12, 5 mM dithiothreitol, 5 mM L-α-aminoadipic acid, I mM L -cysteine and 5 mM L -valine, all components dissolved in 100 µl of 100 mM MOPS/KOH at pH 7.5. Reactions were performed at 25°C in a water bath shaker, and terminated by addition of 25 µl of 20% trichloroacetic acid. Precipitated protein was removed by centrifugation, and the supernatant stored at -20°C prior to analysis. (MOPS = 3-[N-Morpholino] propanesulfonic acid, - a biological buffer available from Sigma Chemical Co.
Mycelia from Example 1 were washed twice with cold 50 mM Tris/HC1 buffer (pH 7.2) containing 100 mM KC1. After centrifugation, the pellet was resuspended in a volume of cold 100 mM MOPS/KOH buffer (pH 7.2) equal to twice the pellet volume; the buffer also contained 50 mM KCI, 30 mM 2-mercaptoethanol, 20 mM EDTA and 50% glycerol (v/v). The cells were disrupted in a French Press (Aminco) at 8000 psi and the debris removed by centrifugation (30,000×g, 15 min). The clear yellow supernatant fluid was stored at -20°C or immediately desalted by passage through a Sephadex G-15 column using an elution buffer of 100 mM MOPSiKOH (pH 7.2) containing 50 mM KCI and 20% glycerol (v/v). The resulting solution contained 10 to 20 mg protein per ml and was either used immediately for the cell-free reaction or frozen for future use.
Stored frozen extract (from Example 2) was thawed, desalted over Sephadex eG-15, and eluted with 100 mM MOPS/KOH at pH 7.5. Typical reaction mixtures contained desalted extract (about 0.5 mg protein), 20 µg cycloheximide, 10 mM ATP, 10 mM MgCI2, 5 mM dithiothreitol, 5 mM L-α-aminoadipic acid, 1 mM L -cysteine and 5 mM L-valine, all components dissolved in 100 µl of 100 mM MOPS/KOH at pH 7.5. Reactions were performed at 25°C in a water bath shaker, and terminated by addition of 25 µl of 20% trichloroacetic acid. Precipitated protein was removed by centrifugation, and the supernatant stored at -20°C prior to analysis.
Analyses were performed following derivatization with monobromobimane: to a 20 I sample were added successively 2 µl of 3M KOH, 4 µl of 0.03M dithiothreitol in 2M NH4HCO3 (pH 8.2), and 4 µl of 0.3M monobromobimane in acetonitrile. This mixture was stored for 15 min. in the dark, and then extracted with methylene chloride (4 × 200 I). Five µl of 1 M citric acid (pH 2.2) was added, and 25 µl of this final solution was injected into the HPLC apparatus.
The HPLC analysis employed two solutions, viz., A, 880 mg for pentanesulfonic acid, 2.5 ml of acetic acid in I liter H20 (pH 3.6); B, 880 mg of pentanesulfonic acid, 2.5 ml acetic acid, 50 ml water and 950 ml acetonitrile. […]

ACV-synthetase of C. acremonium C-10, sequence (P25464 whole entry): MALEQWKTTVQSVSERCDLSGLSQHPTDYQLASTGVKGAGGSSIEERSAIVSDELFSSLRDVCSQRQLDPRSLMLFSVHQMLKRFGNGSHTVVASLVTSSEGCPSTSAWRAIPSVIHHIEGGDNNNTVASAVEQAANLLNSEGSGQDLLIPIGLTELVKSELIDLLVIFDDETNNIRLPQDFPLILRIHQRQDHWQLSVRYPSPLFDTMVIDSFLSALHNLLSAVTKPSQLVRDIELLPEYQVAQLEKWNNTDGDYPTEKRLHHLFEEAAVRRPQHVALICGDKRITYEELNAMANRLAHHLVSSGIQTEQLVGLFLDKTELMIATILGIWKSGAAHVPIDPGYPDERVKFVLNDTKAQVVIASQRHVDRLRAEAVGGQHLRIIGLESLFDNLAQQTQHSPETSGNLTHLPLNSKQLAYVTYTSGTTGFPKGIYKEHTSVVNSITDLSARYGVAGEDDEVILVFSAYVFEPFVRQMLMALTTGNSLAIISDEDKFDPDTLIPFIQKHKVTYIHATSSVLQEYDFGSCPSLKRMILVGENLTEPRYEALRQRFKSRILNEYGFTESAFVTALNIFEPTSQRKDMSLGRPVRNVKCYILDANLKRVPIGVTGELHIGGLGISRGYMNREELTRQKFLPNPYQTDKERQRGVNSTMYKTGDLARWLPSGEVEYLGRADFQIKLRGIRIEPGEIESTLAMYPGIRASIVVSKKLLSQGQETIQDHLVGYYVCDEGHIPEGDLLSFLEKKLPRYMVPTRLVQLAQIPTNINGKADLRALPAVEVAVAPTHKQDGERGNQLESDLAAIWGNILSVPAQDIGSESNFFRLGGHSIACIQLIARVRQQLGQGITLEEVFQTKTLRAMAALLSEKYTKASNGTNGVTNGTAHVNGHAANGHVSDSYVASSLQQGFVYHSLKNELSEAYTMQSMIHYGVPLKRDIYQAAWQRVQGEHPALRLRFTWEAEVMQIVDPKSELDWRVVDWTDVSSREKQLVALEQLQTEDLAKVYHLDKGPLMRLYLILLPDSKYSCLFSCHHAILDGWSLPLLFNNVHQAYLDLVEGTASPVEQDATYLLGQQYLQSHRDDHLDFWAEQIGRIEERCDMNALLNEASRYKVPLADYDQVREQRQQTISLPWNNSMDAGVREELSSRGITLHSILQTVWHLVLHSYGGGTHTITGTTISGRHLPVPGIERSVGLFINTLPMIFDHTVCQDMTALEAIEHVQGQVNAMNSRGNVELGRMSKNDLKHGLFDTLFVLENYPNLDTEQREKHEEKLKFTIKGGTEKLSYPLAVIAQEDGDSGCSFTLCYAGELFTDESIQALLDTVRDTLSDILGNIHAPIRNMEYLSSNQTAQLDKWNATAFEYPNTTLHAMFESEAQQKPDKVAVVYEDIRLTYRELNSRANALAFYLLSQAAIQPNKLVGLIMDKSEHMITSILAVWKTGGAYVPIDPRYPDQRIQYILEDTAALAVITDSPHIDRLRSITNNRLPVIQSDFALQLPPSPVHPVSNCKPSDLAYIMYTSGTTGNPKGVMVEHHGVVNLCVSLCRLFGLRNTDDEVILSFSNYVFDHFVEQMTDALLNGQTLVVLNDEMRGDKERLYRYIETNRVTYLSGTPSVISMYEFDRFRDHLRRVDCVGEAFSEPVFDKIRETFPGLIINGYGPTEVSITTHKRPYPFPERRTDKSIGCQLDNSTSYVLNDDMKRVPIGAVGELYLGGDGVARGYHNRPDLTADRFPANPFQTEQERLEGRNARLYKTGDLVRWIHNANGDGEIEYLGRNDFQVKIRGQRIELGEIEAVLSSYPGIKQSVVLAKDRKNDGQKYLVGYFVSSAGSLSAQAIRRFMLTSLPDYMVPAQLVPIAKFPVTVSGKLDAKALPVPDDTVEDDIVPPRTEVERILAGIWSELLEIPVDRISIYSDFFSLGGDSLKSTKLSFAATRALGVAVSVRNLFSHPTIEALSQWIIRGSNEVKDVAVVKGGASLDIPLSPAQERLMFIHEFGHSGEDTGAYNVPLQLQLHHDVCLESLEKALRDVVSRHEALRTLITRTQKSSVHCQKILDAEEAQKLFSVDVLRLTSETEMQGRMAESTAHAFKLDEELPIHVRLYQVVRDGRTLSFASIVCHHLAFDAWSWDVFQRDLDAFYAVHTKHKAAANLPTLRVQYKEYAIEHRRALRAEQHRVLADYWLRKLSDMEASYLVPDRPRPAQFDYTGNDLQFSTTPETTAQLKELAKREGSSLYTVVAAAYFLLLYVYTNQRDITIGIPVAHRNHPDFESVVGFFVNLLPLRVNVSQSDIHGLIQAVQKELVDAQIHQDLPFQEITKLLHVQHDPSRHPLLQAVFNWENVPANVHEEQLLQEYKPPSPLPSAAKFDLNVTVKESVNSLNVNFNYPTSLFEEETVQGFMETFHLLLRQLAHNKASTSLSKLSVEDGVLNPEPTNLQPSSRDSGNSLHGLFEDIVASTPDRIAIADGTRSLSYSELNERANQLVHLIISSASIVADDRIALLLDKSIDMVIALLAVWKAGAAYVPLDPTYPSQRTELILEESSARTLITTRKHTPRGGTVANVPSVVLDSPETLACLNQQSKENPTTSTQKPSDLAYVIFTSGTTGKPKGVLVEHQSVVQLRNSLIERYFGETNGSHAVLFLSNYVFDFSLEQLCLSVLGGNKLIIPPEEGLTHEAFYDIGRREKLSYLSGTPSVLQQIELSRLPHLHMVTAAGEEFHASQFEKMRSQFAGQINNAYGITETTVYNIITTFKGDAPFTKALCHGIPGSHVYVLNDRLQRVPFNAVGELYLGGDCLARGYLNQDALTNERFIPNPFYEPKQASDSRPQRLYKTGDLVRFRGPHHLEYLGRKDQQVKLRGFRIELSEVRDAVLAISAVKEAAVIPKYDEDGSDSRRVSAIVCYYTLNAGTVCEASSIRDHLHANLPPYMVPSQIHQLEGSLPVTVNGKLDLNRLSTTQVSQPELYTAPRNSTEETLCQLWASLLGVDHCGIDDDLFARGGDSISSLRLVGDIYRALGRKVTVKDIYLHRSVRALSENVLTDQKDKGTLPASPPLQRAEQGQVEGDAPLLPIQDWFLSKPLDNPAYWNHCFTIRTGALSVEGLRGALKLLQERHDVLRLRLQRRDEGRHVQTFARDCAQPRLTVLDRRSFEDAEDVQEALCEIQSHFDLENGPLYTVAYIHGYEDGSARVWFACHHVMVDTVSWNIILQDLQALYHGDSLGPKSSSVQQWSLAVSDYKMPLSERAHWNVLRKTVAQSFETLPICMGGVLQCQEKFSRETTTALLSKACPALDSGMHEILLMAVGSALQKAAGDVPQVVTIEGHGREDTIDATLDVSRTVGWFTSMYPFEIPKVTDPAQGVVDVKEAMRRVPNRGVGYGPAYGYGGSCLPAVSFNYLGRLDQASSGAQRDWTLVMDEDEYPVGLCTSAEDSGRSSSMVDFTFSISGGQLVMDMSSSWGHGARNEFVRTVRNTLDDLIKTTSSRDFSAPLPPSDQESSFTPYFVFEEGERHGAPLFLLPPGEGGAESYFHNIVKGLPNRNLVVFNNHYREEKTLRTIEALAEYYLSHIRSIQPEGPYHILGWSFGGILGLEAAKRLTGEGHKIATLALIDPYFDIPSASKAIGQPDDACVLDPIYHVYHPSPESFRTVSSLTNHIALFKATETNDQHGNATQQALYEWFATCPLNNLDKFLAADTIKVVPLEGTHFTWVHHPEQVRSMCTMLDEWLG

orthophosphate: the “inhibition of ACV-synthetase” value is reported as “inhibit”. For glucose-1-phosphate, the “inhibition of ACV-synthetase” value is reported as “inhibit”. With Fructose-1.6-diphosphate, the “inhibition of ACV-synthetase” value is “inhibit”. On to `NCC(=O)O` [glycine], for which, where the note is “added as a fourth amino acid, concentration not given”, the “effect on LLD-ACV synthesis” value was “unaffected”.
